According to PubChem BioAssay (NCI):
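Grown in 96-well plates, cells were treated for 48 hours with each compound at five concentrations. Insufficient inhibition: endpoint recorded as highest concentration tested. Definition used: TGI = concentration required for complete inhibition of growth.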

Experiments:
Assay in all cases: NCI anticancer screen, dose series, 48 h
786-0 renal = system: 786-0 renal
A549 NSCLC = system: A549 NSCLC
ACHN renal = system: ACHN renal
CAKI-1 renal = system: CAKI-1 renal
CCRF-CEM leukemia = system: CCRF-CEM leukemia
COLO 205 colon = system: COLO 205 colon
DLD-1 colon = system: DLD-1 colon
DMS 114 small cell lung = system: DMS 114 small cell lung
DMS 273 small cell lung = system: DMS 273 small cell lung
EKVX NSCLC = system: EKVX NSCLC
HCC-2998 colon = system: HCC-2998 colon
HCT-116 colon = system: HCT-116 colon
HCT-15 colon = system: HCT-15 colon
HL-60(TB) leukemia = system: HL-60(TB) leukemia
HOP-62 NSCLC = system: HOP-62 NSCLC
HOP-92 NSCLC = system: HOP-92 NSCLC
HT29 colon = system: HT29 colon
IGROV1 ovarian = system: IGROV1 ovarian
K-562 leukemia = system: K-562 leukemia
KM12 colon = system: KM12 colon
KM20L2 colon = system: KM20L2 colon
LOX IMVI melanoma = system: LOX IMVI melanoma
LXFL 529 NSCLC = system: LXFL 529 NSCLC
M14 melanoma = system: M14 melanoma
MALME-3M melanoma = system: MALME-3M melanoma
MOLT-4 leukemia = system: MOLT-4 leukemia
NCI-H226 lung = system: NCI-H226 lung
NCI-H460 lung = system: NCI-H460 lung
OVCAR-3 ovarian = system: OVCAR-3 ovarian
OVCAR-4 ovarian = system: OVCAR-4 ovarian
OVCAR-5 ovarian = system: OVCAR-5 ovarian
OVCAR-8 ovarian = system: OVCAR-8 ovarian
RPMI-8226 leukemia = system: RPMI-8226 leukemia
RXF 393 renal = system: RXF 393 renal
RXF-631 renal = system: RXF-631 renal
SF-295 CNS = system: SF-295 CNS
SK-MEL-2 melanoma = system: SK-MEL-2 melanoma
SK-MEL-28 melanoma = system: SK-MEL-28 melanoma
SK-MEL-5 melanoma = system: SK-MEL-5 melanoma
SK-OV-3 ovarian = system: SK-OV-3 ovarian
SN12C renal = system: SN12C renal
SNB-19 CNS = system: SNB-19 CNS
SNB-75 CNS = system: SNB-75 CNS
SNB-78 CNS = system: SNB-78 CNS
SW-620 colon = system: SW-620 colon
TK-10 renal = system: TK-10 renal
U251 CNS = system: U251 CNS
UACC-257 melanoma = system: UACC-257 melanoma
UACC-62 melanoma = system: UACC-62 melanoma
UO-31 renal = system: UO-31 renal
XF 498 CNS = system: XF 498 CNS

Measured: TGI

CCOC(=O)C(C(C)=O)C1CC=CC1 (stereo unspecified)
> 100 µM: 786-0 renal | A549 NSCLC | ACHN renal | CAKI-1 renal | CCRF-CEM leukemia | COLO 205 colon | DLD-1 colon | DMS 114 small cell lung | DMS 273 small cell lung | EKVX NSCLC | HCC-2998 colon | HCT-116 colon | HCT-15 colon | HL-60(TB) leukemia | HOP-62 NSCLC | HOP-92 NSCLC | HT29 colon | IGROV1 ovarian | K-562 leukemia | KM12 colon | KM20L2 colon | LOX IMVI melanoma | LXFL 529 NSCLC | M14 melanoma | MALME-3M melanoma | MOLT-4 leukemia | NCI-H226 lung | NCI-H460 lung | OVCAR-3 ovarian | OVCAR-4 ovarian | OVCAR-5 ovarian | OVCAR-8 ovarian | RPMI-8226 leukemia | RXF 393 renal | RXF-631 renal | SF-295 CNS | SK-MEL-2 melanoma | SK-MEL-28 melanoma | SK-MEL-5 melanoma | SK-OV-3 ovarian | SN12C renal | SNB-19 CNS | SNB-75 CNS | SNB-78 CNS | SW-620 colon | TK-10 renal | U251 CNS | UACC-257 melanoma | UACC-62 melanoma | UO-31 renal | XF 498 CNS
